Source: patent EP2679243B1, “Co-precipitate of one or more stilbene polyphenols in lamellar anionic solids, it's applications and related preparation method” (Fioretti, Bernard, priority 2012, dated 2014)
≈ marks a conversion by molar mass, not a printed value.

How the values were obtained:
[1] = cited from earlier work
[2] = Solubility in gastric fluid (indirect weighing and UV dosage); type: physicochemical; conditions: gastric fluid (FU; fluid mimicking the gastric fluid), simulated gastric fluid, thermodynamic from solid, gastric fluid pH 1.2, FU
Protocol: Solution 1is prepared by dissolving 258.3 mg of AlCl3 * 6H2O and 508.3 mg of MgCl2 * 6H2O in 18 mL of deionized water. […] A hydro-alcoholic solution is obtained by mixing the first and second solution and keeping it in a dark environment, agitated and in nitrogen flow. To this solution, under nitrogen flow, it has to be added 10 ml of NaOH solution 1 M up to a pH between 10-11. Solid precipitated is left to be digested for 15 minutes and then it is separated through centrifugation. The solid recovered, has to be washed 2 times using 30 ml of deionized water and finally using 20 ml of ethanol. Finally the solid recovered is dryed out at 50 °C. […] Width of signals is due to low crystallinity of hydrotalcitic matrix that can be ascribed to an amorphous phase. […] The presence of resveratrol is confirmed by DTA signal (black trace) in which it is possible to observe a sequence of exhotermic processes due to resveratrol degradation. […] Little changes are observed after a 120 minute irradiation at 340 nm (Figure 3C. black trace: not irradiated; red trace: irradiated). […] Dissolution tests in fluids mimicking the gastric fluid (pH: 1-2, FU) at 37 °C, stirred and characterized by a blade rotation speed equal to 60 rotation/min in not sink conditions.

[3] = Photostability under irradiation at 340 nm (absorption spectra); type: physicochemical
From the text: • Figure 1. Characterization of the product obtained from the co-precipitation process according to the invention described in example 1. […] Figure 1B. The thermogravimetric analysis defines weight percentage of resveratrol load in co-precipitate. […] Characterization of the product obtained from the co-precipitation process according to the invention described in example 2. Figure 2A. […] Figure 2B. The thermogravimetric analysis to calculate weight percentage of resveratrol in co-precipitate. […] Figure 2C. […] Samples are prepared in aqueous solution. […] Column Luna Phenomenex RP-18, eluents A)-H2O + TFA 0.1% e B- MeCN (Gradient: 5min: 5% B; 20 min: until 95% B; 5 min: up to 5% B, Temperature: 25°C, flow speed of eluent 1.0 mL/min, detector: DAD (190-400 nm)) • Figure 3. […] A) Absorption spectrum of crystalline resveratrol. […] The dissolution rate is measured to acid gastric buffer (pH 1.2, XII italian FU) in non-sink condition at a temperature of 37°C and while being agitated (agitation 60 rotation/minute).
Solution 1is prepared by dissolving 258.3 mg of AlCl3 * 6H2O and 508.3 mg of MgCl2 * 6H2O in 18 mL of deionized water. […] A hydro-alcoholic solution is obtained by mixing the first and second solution and keeping it in a dark environment, agitated and in nitrogen flow. To this solution, under nitrogen flow, it has to be added 10 ml of NaOH solution 1 M up to a pH between 10-11. […]

[4] = cited from earlier work; remark: listed apart in the source
[5] = compared to resveratrol; cited from earlier work

Compound	pKa [1]	solubility [2] [µg/mL]	photostability ([3]; aqueous solution, 30 minute irradiation at 340 nm)	photostability ([3]; solid, 60 minute irradiation at 340 nm)	solubility in water [4]	maximum plasma peak [5]
Oc1ccc(/C=C/c2cc(O)cc(O)c2)cc1 [resveratrol, trans-resveratrol]	~10	44 (≈ 193 µM)	photo-instability	photo-degraded	about 30 mg/l	–
resveratrol-L-arginine salt	–	–	–	–	–	increased
